Reference: patent US11318143B2, “Treatment of alcohol use disorder” (priority 2017, dated 2022)

Legend:
[1] = test system: subjects with alcohol use disorder; conditions: treatment of AUD, literature, cited from earlier work; for effect size (Cohen's D): meta-analyses
[2] = test system: dopamine levels in the rat nucleus accumbens; assay: in vivo microdialysis in the nucleus accumbens in awake freely moving rats; design: species or system Wistar rats; conditions: for extracellular dopamine levels in the dialysate (percent of baseline): FIG. 1, varenicline 1.5 mg/kg, bupropion 2.5 mg/kg i.p., sampling 140 minutes, preliminary data; for extracellular DA levels / DA release in the rat nAc: FIGS. 1 to 5, overall statement
Method: Shown are dopamine levels measured in the dialysate expressed as percent of baseline. Drugs (mg/kg) or control solution (NaCl) was injected i.p. directly after time-point 0.
FIGS. 2 and 3 show results from in vivo microdialysis in the nucleus accumbens in awake freely moving male Wistar rats after injection of varenicline (1.5 mg/kg, i.p.) or bupropion (2.5, 5 and 10 mg/kg i.p.) Dopamine levels in the dialysate are expressed as percent of baseline. Drugs or control solution (NaCl) was injected directly after time-point 0.
FIG. 5 illustrates the Area Under the Curve (AUC) 0-140 minutes (Bup 5 vs Var+Bup 5: p<0.001.
A). Experiments that examine the effects of varenicline and bupropion (separately and in combination) on dopamine release in the nucleus accumbens (nAc; a central part of the brain reward system) using in vivo microdialysis in awake, freely moving rats have commenced. […] Rats were surgically implanted with a microdialysis probe into nAc, which two days later was coupled to a perfusion pump allowing liquid sampling from the extracellular space. After a stable baseline was obtained varenicline (1.5 mg/kg, […].), bupropion (2.5 mg/kg, i.p.) or control solution was administered and sampling continued for 140 minutes. […] Further, as long as bupropion produces an effect, this effect adds to the varenicline effect when the two drugs are given in combination.

[3] = test system: relapses to drinking; conditions: chronic i.m. administration (Wiesbeck et al., 2001); cited from earlier work
[4] = test system: nicotinic acetylcholine receptors (nAChRs); conditions: systemic administration or site-directed injections in the VTA (Blomqvist et al., 1996; Ericson et al., 1998); cited from earlier work
[5] = test system: ethanol-induced stimulation and euphoria; conditions: McKee et al. (2009); cited from earlier work
[6] = test system: alcohol dependent individuals; conditions: cited from earlier work

SMILES | Numbers-needed-to-treat (NNT) [1] | effect size (Cohen's D) [1] | extracellular dopamine levels in the dialysate (percent of baseline) [2] | extracellular DA levels / DA release in the rat nAc [2] | also measured
CC(=O)NCCCS(=O)(=O)O [Acamprosate] | 7.5 | 0.32 | – | – | –
O=C1CC[C@@]2(O)[C@H]3Cc4ccc(O)c5c4[C@@]2(CCN3CC2CC2)[C@H]1O5 [Naltrexone] | 8.6 | 0.2 | – | – | –
CC(NC(C)(C)C)C(=O)c1cccc(Cl)c1 (stereo not shown) [bupropion] | – | – | raise extracellular dopamine levels | increase extracellular DA levels | –
OCCN1CCN(CC/C=C2\c3ccccc3Sc3ccc(C(F)(F)F)cc32)CC1 [fluphentixole] | – | – | – | – | relapses to drinking as compared to placebo [3]: worsened the condition
CNC1(C)C2CCC(C2)C1(C)C (stereo not shown) [mecamylamine] | – | – | – | – | ethanol intake and preference [4]: reduces
c1cnc2cc3c(cc2n1)[C@@H]1CNC[C@H]3C1 [varenicline] | – | – | raise extracellular dopamine levels | increase extracellular DA levels | ethanol-induced stimulation and euphoria [5]: blocked; effect ([6]; females (O'Malley et al., 2017)): no effect; effect size ([6]; male alcoholics (O'Malley et al., 2017)): 0.45
